Measured values reported in ChEMBL document CHEMBL5727296, “Amino-triazolopyridine compounds and their use in treating cancer” (2019).
pIC50: −log10 of the molar value.

Molecular target: T1, Dual specificity protein kinase TTK (Homo sapiens, UniProt P33981)
T1 sequence (P33981 whole entry): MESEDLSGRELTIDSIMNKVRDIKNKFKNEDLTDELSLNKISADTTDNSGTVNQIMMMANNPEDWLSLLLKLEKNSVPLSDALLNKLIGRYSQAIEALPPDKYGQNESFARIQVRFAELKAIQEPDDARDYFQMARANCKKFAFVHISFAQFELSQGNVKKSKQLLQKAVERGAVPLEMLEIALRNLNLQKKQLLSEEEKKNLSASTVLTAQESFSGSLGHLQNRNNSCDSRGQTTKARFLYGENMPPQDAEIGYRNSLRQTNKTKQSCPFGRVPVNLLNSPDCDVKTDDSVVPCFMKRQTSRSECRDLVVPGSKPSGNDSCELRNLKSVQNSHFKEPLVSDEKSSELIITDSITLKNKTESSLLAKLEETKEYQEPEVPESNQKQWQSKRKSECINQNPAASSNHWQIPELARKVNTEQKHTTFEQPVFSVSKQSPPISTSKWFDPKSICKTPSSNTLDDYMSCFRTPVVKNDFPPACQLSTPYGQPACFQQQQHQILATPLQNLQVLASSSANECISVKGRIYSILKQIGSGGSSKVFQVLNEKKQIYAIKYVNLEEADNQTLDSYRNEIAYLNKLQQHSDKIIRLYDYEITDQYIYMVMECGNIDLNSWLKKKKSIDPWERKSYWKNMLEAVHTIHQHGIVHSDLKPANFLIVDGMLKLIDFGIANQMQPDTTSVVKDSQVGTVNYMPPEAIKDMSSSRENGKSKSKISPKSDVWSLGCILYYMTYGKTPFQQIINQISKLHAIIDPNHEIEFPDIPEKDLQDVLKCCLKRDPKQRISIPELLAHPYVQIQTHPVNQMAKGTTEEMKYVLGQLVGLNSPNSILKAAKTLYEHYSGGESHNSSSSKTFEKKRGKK
Experiment: Enzyme Assay: The inhibitory activity of compounds against AURKA, AURKB, JAK1, JAK2 and JAK3 was determined in Z′-LYTE® assays run by ThermoFisher Scientific as part of their SelectScreen Biochemical Kinase Profiling Service. The Z′-LYTE biochemical assay format employs a fluorescence-based, coupled-enzyme format and is based on the differential sensitivity of phosphorylated and …
Description: Enzyme Assay: The inhibitory activity of compounds against AURKA, AURKB, JAK1, JAK2 and JAK3 was determined in Z′-LYTE® assays run by ThermoFisher Scientific as part of their SelectScreen Biochemical Kinase Profiling Service. The Z′-LYTE biochemical assay format employs a fluorescence-based, coupled-enzyme format and is based on the differential sensitivity of phosphorylated and non-phosphorylated peptides to proteolytic cleavage. The peptide substrate is labeled with two fluorophores one at each end that make up a FRET pair. In the primary reaction, the kinase transfers the gamma-phosphate of ATP to a single tyrosine, serine or threonine residue in a synthetic FRET-peptide. In the secondary reaction, a site-specific protease recognises and cleaves non-phosphorylated FRET-peptides. Phosphorylation of FRET-peptides suppresses cleavage by the Development Reagent. Cleavage disrupts FRET between the donor (i.e., coumarin) and acceptor (i.e., fluorescein) fluorophore on the FRET-peptide, whereas uncleaved, phosphorylated FRET-peptides maintain FRET. A ratiometric method, which calculates the ratio (the Emission Ratio) of donor emission to acceptor emission after excitation of the donor fluorophore at 400 nm, is used to quantitate reaction progress. Both cleaved and uncleaved FRET-peptides contribute to the fluorescence signals and therefore to the Emission Ratio. The extent of phosphorylation of the FRET-peptide can be calculated from the Emission Ratio.

Cc1cc2ncnn2cc1Nc1ncc2c(n1)n([C@H]1CC[C@@](C)(O)CC1)c(=O)n2C
pIC50: 6.30
